The experiment concerns 885512-296-R-J2-PDC complex spheroid viability. Kind of experiment: Anticancer human tumor 885512-296-R-J2-PDC patient-derived breast carcinoma cell line growth inhibition [GQUAD]. The note with it: for viability, T/C: stronger effect = lower value. An excerpt:
DNA G-quadruplex Stabilizer Agents in Combinations in Complex Spheroids
A high-throughput screen of multi-cell type tumor spheroids was designed to identify active combinations of DNA G-quadruplex stabilizer agents and targeted small molecules. Complex spheroids include a stromal component modeled by human endothelial cells (HUVEC) and fibroblasts modeled by human mesenchymal stem cells (MSCs). The concentration ranges selected for each drug and investigational agent were based upon clinically achievable concentrations if the clinical Cmax of the agent was known.
Compounds. The drugs and investigational agents: pidnarulex (CX-5461; NSC782164), APTO-253 (NSC789042), BRACO-19 (NSC847499), peposertib (NSC802822), ceralasertib (NSC780249), elimusertib (NSC800525), camonsertib (NSC841442), AZD-1390 (NSC803789), olaparib (NSC753686), talazoparib (NSC767125), ART-558 (NSC835418), sotorasib (NSC818433), MRTX-1133 (NSC836407), SN-38 (NSC673596), topotecan (NSC609699), etoposide (NSC141540), doxorubicin (NSC123127), gemcitabine (NSC613327), 5-fluorouracil (NSC19893), paclitaxel (NSC125973), vemurafenib (NSC761431), panobinostat (NSC761190), R-306465 (JNJ-16241199; NSC773264), adavosertib (NSC754352), TP-3654 (NSC805149), carboplatin (NSC241240), KSQ-4279 (NSC840948), and staurosporine (NSC755774) were obtained from the National Cancer Institute (NCI) Developmental Therapeutics Program Chemical Repository (34). The FDA-approved anticancer drug set is available from the NCI Developmental Therapeutics Program. […] The stock solutions were prepared in dimethyl sulfoxide (DMSO, Sigma-Aldrich, St. Louis, MO, cat. D2650) at 800-fold the tested concentration and stored at -70 degrees C prior to their use. All drugs and investigational agents were tested over a range starting from a high concentration at or near the clinical Cmax and decreasing in half-log increments. If the clinical Cmax for an agent had not been determined, the highest concentration tested was 10 microM.
2.3 Cell Culture. All cells were maintained in an incubator at 37 degrees C and 5% CO2 with 95% humidity. The PDC lines were cultured according to standard operating procedures established by the NCI PDMR. All PDCs were thawed and cultured in Matrigel-coated flasks prepared with a working solution of 1X Ham's F-12 nutrient mix, without supplementation (Invitrogen, cat. 11765054), 100 U/mL penicillin-streptomycin (Invitrogen, cat. 15140122), and 2.5% Matrigel (Corning Inc., cat. 354248) for the first three passages. The 857933-349-R-J2-PDC line was cultured in 6C/Colon 1B media, which includes advanced DMEM/F-12 (Thermo Fisher Scientific, cat. 12634028), 10 mM HEPES (Thermo Fisher Scientific, cat. 15630080), 1X GlutaMAX supplement (Thermo Fisher Scientific, cat. 35050061), 0.1 mg/mL primocin (InvivoGen, cat. ant-pm-2), 10% defined fetal bovine serum, heat inactivated (HyClone Laboratories Inc., cat. SH30070.03HI), 50% L-WRN conditioned media (ATCC, cat. CRL-3276), 1.25 mM N-Acetyl-L-cysteine (Sigma-Aldrich, cat. A9165), 10 mM nicotinamide (Sigma-Aldrich, cat. N0636), 1X B-27 supplement (Thermo Fisher Scientific, cat. 17504044), 1X N-2 supplement (Thermo Fisher Scientific, cat. 17502048), 10 microM Y-27632 dihydrochloride (Tocris Bioscience, cat. 1254), and 50 ng/mL human EGF recombinant protein (Thermo Fisher Scientific, cat. PHG0311). The 485176-168-R4-J1-PDC line was cultured in Panc media, which includes all 6C/Colon 1B media components plus 100 ng/mL human FGF-10 (Thermo Fisher Scientific, cat. 100-26), 500 nM SB-431542 (Selleckchem, cat. S1067), and gastrin (Tocris, cat. 3006).
[…]

The mark [1] stands for this setting: curve of first compound, second compound 0.0316 µM.
Setting [2] is: curve of first compound, second compound 0.1 µM.
Setting [3] is: curve of first compound, second compound 0.316 µM.
Where [4] appears, read: curve of first compound, second compound 1 µM.
The mark [5] stands for this setting: curve of first compound, second compound 3.16 µM.
[6] abbreviates: curve of first compound, second compound 10 µM.
The mark [7] stands for this setting: second compound 0.0316 µM, first compound 0.0316 µM.
Setting [8] is: second compound 0.0316 µM, first compound 0.1 µM.
Where [9] appears, read: second compound 0.0316 µM, first compound 0.316 µM.
[10] abbreviates: second compound 0.0316 µM, first compound 1 µM.
[11] abbreviates: second compound 0.0316 µM, first compound 3.16 µM.
Setting [12] is: second compound 0.0316 µM, first compound 10 µM.
Where [13] appears, read: second compound 0.1 µM, first compound 0.0316 µM.
The mark [14] stands for this setting: second compound 0.1 µM, first compound 0.1 µM.
The mark [15] stands for this setting: second compound 0.1 µM, first compound 0.316 µM.
[16] abbreviates: second compound 0.1 µM, first compound 1 µM.
[17] abbreviates: second compound 0.1 µM, first compound 3.16 µM.
[18] abbreviates: second compound 0.1 µM, first compound 10 µM.
Where [19] appears, read: second compound 0.316 µM, first compound 0.0316 µM.
[20] abbreviates: second compound 0.316 µM, first compound 0.1 µM.
The mark [21] stands for this setting: second compound 0.316 µM, first compound 0.316 µM.
The mark [22] stands for this setting: second compound 0.316 µM, first compound 1 µM.
Setting [23] is: second compound 0.316 µM, first compound 3.16 µM.
Setting [24] is: second compound 0.316 µM, first compound 10 µM.
Setting [25] is: second compound 1 µM, first compound 0.0316 µM.
The mark [26] stands for this setting: second compound 1 µM, first compound 0.1 µM.
The mark [27] stands for this setting: second compound 1 µM, first compound 0.316 µM.
Where [28] appears, read: second compound 1 µM, first compound 1 µM.
Setting [29] is: second compound 1 µM, first compound 3.16 µM.
The mark [30] stands for this setting: second compound 1 µM, first compound 10 µM.
[31] abbreviates: second compound 3.16 µM, first compound 0.0316 µM.
Where [32] appears, read: second compound 3.16 µM, first compound 0.1 µM.
[33] abbreviates: second compound 3.16 µM, first compound 0.316 µM.
Where [34] appears, read: second compound 3.16 µM, first compound 1 µM.
Where [35] appears, read: second compound 3.16 µM, first compound 3.16 µM.
[36] abbreviates: second compound 3.16 µM, first compound 10 µM.
Setting [37] is: second compound 10 µM, first compound 0.0316 µM.
The mark [38] stands for this setting: second compound 10 µM, first compound 0.1 µM.
[39] abbreviates: second compound 10 µM, first compound 0.316 µM.
Setting [40] is: second compound 10 µM, first compound 1 µM.
Setting [41] is: second compound 10 µM, first compound 3.16 µM.
[42] abbreviates: second compound 10 µM, first compound 10 µM.

Molecules are shown by their SMILES. Where “and” joins values, the source holds several entries; their conditions need not be identical. Equal entries are not always repeated. Bounds are passed on as bounds.

Results on 7 compounds are retold here after PubChem BioAssay AID2060490 (Molecular Pharmacology Branch, DTP, NCI, 2025).
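Further: spheroids exposed to the compounds for one week.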
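Wherever viability, T/C is given: percent of tumor spheroid viability relative to DMSO vehicle control wells.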

Take `COc1ncnc(C2CC2)c1-c1ncc2cnn(Cc3ccc(-c4nc(C(F)(F)F)cn4C(C)C)cc3)c2n1`: the viability, T/C reads like this: (compound 0.0316 µM) 104% (2×) and 93%; (compound 0.1 µM) 101% and 86% and 90.6%; (compound 0.316 µM) 100% and 59.6% and 104%; (compound 1 µM) 94% and 35.3% and 100%; (compound 3.16 µM) 99.2% and 25.8% and 107%.
Turning to `C=CC(=O)N1CCN(c2nc(=O)n(-c3c(C)ccnc3C(C)C)c3nc(-c4c(O)cccc4F)c(F)cc23)C(C)C1` (configuration not stated), the viability, T/C (compound 0.0316 µM) is 99% and 103% and 101%; the viability, T/C (compound 0.1 µM) was 91% and 94.9% and 108%; the viability, T/C (compound 0.316 µM) was 109% and 105% and 97.4%; the viability, T/C (compound 1 µM) is 109% and 98.9% and 95.3%; the viability, T/C (compound 3.16 µM) is 99.7% and 103% and 91.2%; the viability, T/C (compound 10 µM) is 96.4% (2×) and 95.7%. The 50% inhibitory concentration (IC50) (curve of compound) is greater than 10000 nM.
In the case of `Cc1cccc(N(C)C(=O)C2C(O)CCN2c2nc(C)cc(C(F)(F)F)c2C#N)c1` (configuration not stated), the viability, T/C was 104% and 98.3% and 102% (compound 0.0316 µM); 100% and 104% (2×) (compound 0.1 µM); 91.8% and 93.8% and 104% (compound 0.316 µM); 97.2% and 103% and 105% (compound 1 µM); 97.8% and 113% and 97.5% (compound 3.16 µM); 85% and 79.4% and 86.6% (compound 10 µM). Also, the half-maximal inhibitory concentration (IC50) (curve of compound) was greater than 10000 nM.
Take `CC1COCCN1c1cc(-c2ccnn2C)c2ccnc(-c3ccn[nH]3)c2n1` (configuration not stated): the viability, T/C was 48% and 48.8% and 42.3% (compound 0.0316 µM); 6.72% and 6.01% and 7.2% (compound 0.1 µM); 2.82% and 3.14% and 2.97% (compound 0.316 µM); 3.36% and 4.09% and 3.06% (compound 1 µM); 4.39% and 4.91% and 5.11% (compound 3.16 µM); 7.29% and 7.28% and 8.11% (compound 10 µM). In addition, the 50% inhibitory concentration (IC50) (curve of compound) was less than 31.6 nM.
With `C=CC(=O)N1CCN(c2nc(=O)n(-c3c(C)ccnc3C(C)C)c3nc(-c4c(O)cccc4F)c(F)cc23)C(C)C1` (configuration not stated) + CN(C)c1ccc(Nc2c3ccc(NC(=O)CCN4CCCC4)cc3nc3cc(NC(=O)CCN4CCCC4)ccc23)cc1, the IC50 was greater than 10000 nM under setting [1]; greater than 10000 nM under setting [2]; greater than 10000 nM under setting [3]; greater than 10000 nM under setting [4]; greater than 10000 nM under setting [5]; less than 31.6 nM under setting [6]. Further, the viability, T/C is 104% under setting [7]; 94.9% under setting [8]; 108% under setting [9]; 103% under setting [10]; 102% under setting [11]; 105% under setting [12]. For the same compound, the viability, T/C is, setting by setting: under setting [13], 111%; under setting [14], 99.5%; under setting [15], 101%; under setting [16], 108%; under setting [17], 114%; under setting [18], 100%. Also, the viability, T/C was 107% under setting [19]; 97.9% under setting [20]; 103% under setting [21]; 119% under setting [22]; 99.9% under setting [23]; 105% under setting [24]. In addition, the viability, T/C reads like this: under setting [25], 101%; under setting [26], 88.8%; under setting [27], 101%; under setting [28], 117%; under setting [29], 102%; under setting [30], 108%. For the same compound, the viability, T/C is 106% under setting [31]; 115% under setting [32]; 120% under setting [33]; 129% under setting [34]; 103% under setting [35]; 77.7% under setting [36]. Further, the viability, T/C is, setting by setting: under setting [37], 27%; under setting [38], 21.7%; under setting [39], 21.9%; under setting [40], 18.9%; under setting [41], 20.6%; under setting [42], 10.3%.
Consider `C=CCn1c(=O)c2cnc(Nc3ccc(N4CCN(C)CC4)cc3)nc2n1-c1cccc(C(C)(C)O)n1` + Cc1cnc(CNC(=O)c2c(=O)c3ccc(N4CCCN(C)CC4)nc3n3c2sc2ccccc23)cn1, for which the concentration for half-maximal inhibition (IC50) is 198 nM under setting [1]; 53.1 nM under setting [2]; less than 31.6 nM under setting [3]; less than 31.6 nM under setting [4]; less than 31.6 nM under setting [5]; less than 31.6 nM under setting [6]. Moreover, the viability, T/C is, setting by setting: under setting [7], 91.2%; under setting [8], 80.3%; under setting [9], 29.2%; under setting [10], 7.28%; under setting [11], 2.83%; under setting [12], 2.53%. In addition, the viability, T/C under setting [13] is 58.3%; the viability, T/C under setting [14] is 39.6%; the viability, T/C under setting [15] is 19.6%; the viability, T/C under setting [16] is 6.62%; the viability, T/C under setting [17] was 2.73%; the viability, T/C under setting [18] was 3.18%. In addition, the viability, T/C runs as follows: under setting [19], 21.2%; under setting [20], 16.4%; under setting [21], 12%; under setting [22], 7.07%; under setting [23], 3%; under setting [24], 3.66%. The viability, T/C under setting [25] is 22.6%; the viability, T/C under setting [26] is 16.2%; the viability, T/C under setting [27] is 10.8%; the viability, T/C under setting [28] was 4.65%; the viability, T/C under setting [29] was 2.76%; the viability, T/C under setting [30] is 2.44%. The viability, T/C reads like this: under setting [31], 21.4%; under setting [32], 12.4%; under setting [33], 6.15%; under setting [34], 0.28%; under setting [35], 0.16%; under setting [36], 0.17%. Also, the viability, T/C was 0.12% under setting [37]; 0.16% under setting [38]; 0.16% under setting [39]; 0.15% under setting [40]; 0.81% under setting [41]; 0.81% under setting [42].
Turning to `COc1cccc2c1C(=O)c1c(O)c3c(c(O)c1C2=O)CC(O)(C(=O)CO)CC3OC1CC(N)C(O)C(C)O1` (configuration not stated), the viability, T/C is 87.2% and 85.7% and 88.6% (compound 0.0316 µM); 44.6% and 31.4% and 27.5% (compound 0.1 µM); 23.1% and 20.1% and 23.4% (compound 0.316 µM); 5.91% and 6.03% and 8.79% (compound 1 µM); 0.33% and 0.51% and 0.46% (compound 3.16 µM); 2.28% and 1.5% and 4.09% (compound 10 µM). Further, the IC50 (curve of compound) is 88.8 nM and 70.9 nM and 70 nM.

Usually viability, T/C stands for the ratio of treated to control. The IC50 is the concentration that gives 50% inhibition.
